Experimental data from patent US7138361B2, “Herbicidal heterocycles” (E. I. du Pont de Nemours and Company, priority 2000, dated 2006).

Experiments:
Format in all cases: in vivo
[1] = system: Surinam grass (Brachiaria decumbens); test: Test B preemergence
Outline: (§1)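 Preemergence: seeds planted and treated with test chemicals in non-phytotoxic solvent with surfactant; postemergence on plants 2–18 cm (1- to 4-leaf stage). Kept in greenhouse 13–15 days, then visually rated against controls on a 0 (no effect) to 100 (complete control) scale.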

[2] = system: barnyardgrass (Echinochloa crus-galli); test: Test B preemergence
Outline: as §1

[3] = system: cocklebur (Xanthium strumarium); test: Test B preemergence
Outline: as §1

corn (Zea mays) = test: Test B preemergence
Outline: as §1

[4] = system: crabgrass (Digitaria sanguinalis); test: Test B preemergence
Outline: as §1

[5] = system: giant foxtail (Setaria faberii); test: Test B preemergence
Outline: as §1

[6] = system: lambsquarters (Chenopodium album); test: Test B preemergence
Outline: as §1

[7] = system: morning glory (Ipomoea hederacea); test: Test B preemergence
Outline: as §1

[8] = system: pigweed (Amaranthus retroflexus); test: Test B preemergence
Outline: as §1

rice (Oryza saliva) [9] = test: Test B preemergence
Outline: as §1

[10] = system: velvetleaf (Abutilon theophrasti); test: Test B preemergence
Outline: as §1

Sunflower [11] = test: Test C preemergence; conditions: Rate 125 g/ha; scale 0 to 100, 0 no effect, 100 complete control
[12] = system: pigweed (Amaranthus retroflexus); test: Test C preemergence
Outline: (§2)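 Visual 0–100 rating vs controls (0 = no effect, 100 = complete control) at 12–14 d, greenhouse. Compounds in non-phytotoxic solvent + surfactant; pre: sprayed after seeding; post: 1–4-leaf plants, 2–18 cm.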

[13] = system: velvetleaf (Abutilon theophrasti); test: Test C preemergence
Outline: as §2

[14] = system: woolly cupgrass (Eriochloa villosa); test: Test C preemergence
Outline: as §2

[15] = system: barnyardgrass (Echinochloa crus-galli); test: Test C flooded paddy test; conditions: for Barnyardgrass plant response rating: Flooded Paddy, Rate 500 g/ha, scale 0 to 100, 0 no effect, 100 complete control; for Plant response rating, Barnyardgrass / Plant response rating (scale 0 to 100), Barnyardgrass: flooded paddy test; for Plant response rating, Barnyardgrass: scale 0 to 100 (0 no effect, 100 complete control); for Plant response rating (scale 0 to 100), Barnyardgrass: Rate 62 g/ha, visually evaluated after 12 to 14 days, 0 = no effect, 100 = complete control
Outline: (§3)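 Each species was cultivated to 2 leaves in flooded paddy pots, then treated. After a greenhouse period of 12–14 days, the plants were scored visually relative to controls from 0 (no effect) to 100 (complete control).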

[16] = system: duck salad (Heteranthera limosa); test: Test C flooded paddy test; conditions: for Ducksalad plant response rating: Flooded Paddy, Rate 500 g/ha, scale 0 to 100, 0 no effect, 100 complete control; for Plant response rating, Ducksalad / Plant response rating (scale 0 to 100), Ducksalad: flooded paddy test; for Plant response rating, Ducksalad: scale 0 to 100 (0 no effect, 100 complete control); for Plant response rating (scale 0 to 100), Ducksalad: Rate 62 g/ha, visually evaluated after 12 to 14 days, 0 = no effect, 100 = complete control
Outline: as §3

rice (Oryza saliva) [17] = test: Test C flooded paddy test; conditions: for Rice plant response rating: Flooded Paddy, Rate 500 g/ha, scale 0 to 100, 0 no effect, 100 complete control; for Plant response rating, Rice / Plant response rating (scale 0 to 100), Rice: flooded paddy test; for Plant response rating, Rice: scale 0 to 100 (0 no effect, 100 complete control); for Plant response rating (scale 0 to 100), Rice: Rate 62 g/ha, visually evaluated after 12 to 14 days, 0 = no effect, 100 = complete control
Outline: as §3

[18] = system: smallflower flatsedge (Cyperus difformis); test: Test C flooded paddy test; conditions: for Flatsedge plant response rating: Flooded Paddy, Rate 500 g/ha, scale 0 to 100, 0 no effect, 100 complete control; for Plant response rating, Flatsedge / Plant response rating (scale 0 to 100), Flatsedge: flooded paddy test; for Plant response rating, Flatsedge: scale 0 to 100 (0 no effect, 100 complete control); for Plant response rating (scale 0 to 100), Flatsedge: Rate 62 g/ha, visually evaluated after 12 to 14 days, 0 = no effect, 100 = complete control
Outline: as §3

Nightshade = test: Test C preemergence; conditions: Rate 500 g/ha, visual evaluation after 12 to 14 days
Sunflower [19] = test: Test C preemergence; conditions: scale 0 to 100
[20] = Preemergence, Rate 500 g/ha, scale 0 to 100, 0 no effect, 100 complete control
[21] = preemergence, Rate 125 g/ha, scale of 0 to 100 where 0 is no effect and 100 is complete control, 13 to 15 days
[22] = Rate 125 g/ha, scale 0 to 100, 0 no effect, 100 complete control
[23] = preemergence, Rate 62 g/ha, scale 0 to 100
[24] = preemergence, Rate 500 g/ha, visual evaluation after 12 to 14 days
[25] = preemergence, Rate 250 g/ha, scale 0 to 100, 0 no effect, 100 complete control
[26] = preemergence, Rate 31 g/ha, scale 0 to 100

CCCC(C)c1ccn(C2OCN(c3cccc(OC(F)F)c3)C2=O)n1 (stereo not drawn) [Compound 132]
Plant response rating, Surinam grass [1, 20]: 100 | Plant response rating, Surinam grass [1, 21]: 80 | Plant response rating, Barnyardgrass [2, 20]: 100 | Plant response rating, Barnyardgrass [2, 21]: 100 | Plant response rating, Cocklebur [3, 20]: 30 | Plant response rating, Cocklebur [3, 21]: 0 | Plant response rating, Corn (corn (Zea mays); [20]): 0 | Plant response rating, Corn (corn (Zea mays); [21]): 0 | Plant response rating, Crabgrass [4, 20]: 100 | Plant response rating, Crabgrass [4, 21]: 100 | Plant response rating, Foxtail, Giant [5, 20]: 100 | Plant response rating, Foxtail, Giant [5, 21]: 100 | Plant response rating, Lambsquarters [6, 20]: 100 | Plant response rating, Lambsquarters [6, 21]: 100 | Plant response rating, Morningglory [7, 20]: 0 | Plant response rating, Morningglory [7, 21]: 0 | Plant response rating, Pigweed [8, 20]: 100 | Plant response rating, Pigweed [8, 21]: 70 | Plant response rating, Rice (rice (Oryza saliva) [9]; [20]): 50 | Plant response rating, Rice (rice (Oryza saliva) [9]; [21]): 0 | Plant response rating, Velvetleaf [10, 20]: 30 | Plant response rating, Velvetleaf [10, 21]: 0 | Plant response rating, Sunflower (Sunflower [11]): 20 | Plant response rating, Pigweed [12, 22]: 30 | Plant response rating, Pigweed [12, 23]: 0 | Plant response rating (0 to 100), Pigweed [12, 24]: 100 | Plant response rating, Pigweed [12, 25]: 70 | Plant response rating, Velvetleaf [13, 23]: 0 | Plant response rating (0 to 100), Velvetleaf [13, 24]: 0 | Plant response rating, Velvetleaf [13, 25]: 0 | Plant response rating, Cupgrass, Woolly [14, 22]: 100 | Plant response rating, Cupgrass, Woolly [14, 23]: 90 | Plant response rating (0 to 100), Cupgrass, Woolly [14, 24]: 100 | Plant response rating, Cupgrass, Woolly [14, 25]: 100 | Barnyardgrass plant response rating [15]: 100 | Plant response rating, Barnyardgrass ([15]; Rate 125 g/ha): 70 | Plant response rating, Barnyardgrass ([15]; Rate 250 g/ha): 100 | Plant response rating (scale 0 to 100), Barnyardgrass [15]: 40 | Ducksalad plant response rating [16]: 80 | Plant response rating, Ducksalad ([16]; Rate 125 g/ha): 20 | Plant response rating, Ducksalad ([16]; Rate 250 g/ha): 40 | Plant response rating (scale 0 to 100), Ducksalad [16]: 0 | Rice plant response rating (rice (Oryza saliva) [17]): 90 | Plant response rating, Rice (rice (Oryza saliva) [17]; Rate 125 g/ha): 20 | Plant response rating, Rice (rice (Oryza saliva) [17]; Rate 250 g/ha): 20 | Plant response rating (scale 0 to 100), Rice (rice (Oryza saliva) [17]): 0 | Flatsedge plant response rating [18]: 90 | Plant response rating, Flatsedge ([18]; Rate 125 g/ha): 90 | Plant response rating, Flatsedge ([18]; Rate 250 g/ha): 90 | Plant response rating (scale 0 to 100), Flatsedge [18]: 90 | Plant response rating (0 to 100), Nightshade (Nightshade): 20 | Plant response rating, Sunflower (Sunflower [19]; Rate 62 g/ha): 0

Cc1cc(C)nc(N2CCC(n3ccc(C(C)(C)C)n3)C2=O)c1 (stereo not drawn) [Compound 138]
Plant response rating, Surinam grass [1, 20]: 100 | Plant response rating, Surinam grass [1, 21]: 70 | Plant response rating, Barnyardgrass [2, 20]: 100 | Plant response rating, Barnyardgrass [2, 21]: 0 | Plant response rating, Cocklebur [3, 20]: 100 | Plant response rating, Cocklebur [3, 21]: 0 | Plant response rating, Corn (corn (Zea mays); [20]): 20 | Plant response rating, Corn (corn (Zea mays); [21]): 0 | Plant response rating, Crabgrass [4, 20]: 100 | Plant response rating, Crabgrass [4, 21]: 100 | Plant response rating, Foxtail, Giant [5, 20]: 100 | Plant response rating, Foxtail, Giant [5, 21]: 80 | Plant response rating, Lambsquarters [6, 20]: 100 | Plant response rating, Lambsquarters [6, 21]: 100 | Plant response rating, Morningglory [7, 20]: 100 | Plant response rating, Morningglory [7, 21]: 90 | Plant response rating, Pigweed [8, 20]: 100 | Plant response rating, Pigweed [8, 21]: 100 | Plant response rating, Rice (rice (Oryza saliva) [9]; [20]): 100 | Plant response rating, Rice (rice (Oryza saliva) [9]; [21]): 0 | Plant response rating, Velvetleaf [10, 20]: 0 | Plant response rating, Velvetleaf [10, 21]: 0 | Plant response rating, Sunflower (Sunflower [11]): 0 | Plant response rating, Pigweed [12, 22]: 50 | Plant response rating, Pigweed [12, 26]: 0 | Plant response rating, Pigweed [12, 23]: 30 | Plant response rating, Pigweed [12, 25]: 50 | Plant response rating, Velvetleaf [13, 22]: 0 | Plant response rating, Velvetleaf [13, 26]: 0 | Plant response rating, Velvetleaf [13, 23]: 0 | Plant response rating, Velvetleaf [13, 25]: 0 | Plant response rating, Cupgrass, Woolly [14, 22]: 60 | Plant response rating, Cupgrass, Woolly [14, 26]: 0 | Plant response rating, Cupgrass, Woolly [14, 23]: 40 | Plant response rating, Cupgrass, Woolly [14, 25]: 100 | Barnyardgrass plant response rating [15]: 100 | Plant response rating, Barnyardgrass ([15]; Rate 125 g/ha): 40 | Plant response rating, Barnyardgrass ([15]; Rate 250 g/ha): 100 | Plant response rating (scale 0 to 100), Barnyardgrass [15]: 0 | Ducksalad plant response rating [16]: 100 | Plant response rating, Ducksalad ([16]; Rate 125 g/ha): 20 | Plant response rating, Ducksalad ([16]; Rate 250 g/ha): 60 | Plant response rating (scale 0 to 100), Ducksalad [16]: 0 | Rice plant response rating (rice (Oryza saliva) [17]): 70 | Plant response rating, Rice (rice (Oryza saliva) [17]; Rate 125 g/ha): 0 | Plant response rating, Rice (rice (Oryza saliva) [17]; Rate 250 g/ha): 30 | Plant response rating (scale 0 to 100), Rice (rice (Oryza saliva) [17]): 0 | Flatsedge plant response rating [18]: 100 | Plant response rating, Flatsedge ([18]; Rate 125 g/ha): 90 | Plant response rating, Flatsedge ([18]; Rate 250 g/ha): 100 | Plant response rating (scale 0 to 100), Flatsedge [18]: 90 | Plant response rating, Sunflower (Sunflower [19]; Rate 31 g/ha): 0 | Plant response rating, Sunflower (Sunflower [19]; Rate 62 g/ha): 0
